System: HIV-1 (H9IIIB strain)
Test: Cell-Based HIV Infection Assay Using a Reporter (MT4-GFP cells)
Conditions: Human immunodeficiency virus 1, inflection point (IP) of viral growth inhibition; MT4-GFP cells infected with HIV-1 H9IIIB; 50% normal human serum; mean of at least two independent experiments; read-out: Cell Based IP (50% NHS)
Outline: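 MT4-GFP cells (HIV LTR-driven GFP) bulk-infected with HIV-1 H9IIIB at low MOI for 24 h, washed, then exposed to compounds in RPMI plus 50% normal human serum, 0.4% DMSO. Infected cells counted at 24 and 48 h; R0 = 48 h/24 h ratio, inhibition normalised to DMSO and triple-drug control; IP from 4-parameter fit.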

Row | SMILES | EC50 [nM]
1 | C[C@@H]1CC([C@H](c2ccc(Cl)c(F)c2)[C@H](N)C(=O)Nc2cncc(F)c2CC[C@H]2CN[C@@H]3CCCS(=O)(=O)N2C3)C[C@H](C)O1 (stereo partly drawn) [Example 245, (2S,3R)-2-amino-3-(4-chloro-3-fluorophenyl)-3-((2R,6S)-2,6-dimethyltetrahydro-2H-pyran-4-yl)-N-(4-(2-((6R,9S)-2,2-dioxido-2-thia-1,7-diazabicyclo[4.3.1]decan-9-yl)ethyl)-5-fluoropyridin-3-yl)propanamide] | 5.8
2 | COC(=O)N[C@H](C(=O)Nc1cccc(F)c1CCC1CNC2CCCS(=O)(=O)N1C2)[C@@H](c1ccc(Cl)cc1)c1cncc(C(C)(F)F)c1 (stereo partly drawn) [Example 114, methyl [(1S,2S)-2-(4-chlorophenyl)-2-[5-(1,1-difluoroethyl)pyridin-3-yl]-1-({2-[2-(2,2-dioxido-2-thia-1,7-diazabicyclo[4.3.1]dec-9-yl)ethyl]-3-fluorophenyl}carbamoyl)ethyl]carbamate] | 22
3 | COC(=O)N[C@H](C(=O)Nc1cccc(F)c1CCC1CNC2CCCS(=O)(=O)N1C2)[C@@H](c1ccc(Cl)cc1)c1ccc(C(F)(F)F)nc1 (stereo partly drawn) [Example 21, Methyl {(1S,2S)-2-(4-chlorophenyl)-1-({2-[2-(2,2-dioxido-2-thia-1,7-diazabicyclo[4.3.1]dec-9-yl)ethyl]-3-fluorophenyl}carbamoyl)-2-[6-(trifluoromethyl)pyridin-3-yl]ethyl}carbamate] | 5
4 | Cn1nc([C@H](c2ccc(Cl)c(F)c2)[C@H](N)C(=O)Nc2cccc(F)c2CC[C@H]2CN[C@@H]3CCCS(=O)(=O)N2C3)cc1C(F)(F)F [Example 265, (βR)-4-chloro-N-(2-{2-[(6R,9S)-2,2-dioxido-2-thia-1,7-diazabicyclo[4.3.1]dec-9-yl]ethyl}-3-fluorophenyl)-3-fluoro-β-[1-methyl-5-(trifluoromethyl)-1H-pyrazol-3-yl]-L-phenylalaninamide] | 9.8
5 | COC(=O)N[C@H](C(=O)Nc1cccc(F)c1CC[C@H]1CN[C@@H]2CCCS(=O)(=O)N1C2)[C@]1(c2ccc(Cl)cc2)CC[C@@H](OC)CC1 [Example 13, Methyl {(1S)-1-[trans-1-(4-chlorophenyl)-4-methoxycyclohexyl]-2-[(2-{2-[(6R,9S)-2,2-dioxido-2-thia-1,7-diazabicyclo[4.3.1]dec-9-yl]ethyl}-3-fluorophenyl)amino]-2-oxoethyl}carbamate] | 7.6
6 | CC(C)Oc1cnc([C@H](c2ccc(Cl)cc2)[C@H](N)C(=O)Nc2cccc(F)c2CC[C@H]2CN[C@@H]3CCCS(=O)(=O)N2C3)cn1 [Example 259, (βR)-4-chloro-N-(2-{2-[(6R,9S)-2,2-dioxido-2-thia-1,7-diazabicyclo[4.3.1]dec-9-yl]ethyl}-3-fluorophenyl)-β-[5-(1-methylethoxy)pyrazin-2-yl]-L-phenylalaninamide] | 4.2
7 | COC(=O)N[C@H](C(=O)Nc1cncc(F)c1CC[C@H]1CN[C@@H]2CCCS(=O)(=O)N1C2)[C@@H](c1ccc(F)cc1)C1CCOCC1 [Example 178, methyl {(1S)-2-[(4-{2-[(6R,9S)-2,2-dioxido-2-thia-1,7-diazabicyclo[4.3.1]dec-9-yl]ethyl}-5-fluoropyridin-3-yl)amino]-1-[(R)-(4-fluorophenyl)(tetrahydro-2H-pyran-4-yl)methyl]-2-oxoethyl}carbamate] | 160
8 | COC[C@H]1CC[C@H]([C@H](c2ccc(Cl)cc2)[C@H](N)C(=O)Nc2cncc(F)c2CC[C@H]2CN[C@@H]3CCCS(=O)(=O)N2C3)CC1 [Example 254, (βR)-4-chloro-N-(4-{2-[(6R,9S)-2,2-dioxido-2-thia-1,7-diazabicyclo[4.3.1]dec-9-yl]ethyl}-5-fluoropyridin-3-yl)-β-[(1r,4R)-4-(methoxymethyl)cyclohexyl]-L-phenylalaninamide] | 3
9 | CC(C)Oc1ncc([C@H](c2ccc(Cl)cc2)[C@H](N)C(=O)Nc2cccc(F)c2CC[C@H]2CN[C@@H]3CCCS(=O)(=O)N2C3)cn1 [Example 247, (βS)-4-chloro-N-(2-{2-[(6R,9S)-2,2-dioxido-2-thia-1,7-diazabicyclo[4.3.1]dec-9-yl]ethyl}-3-fluorophenyl)-β-[2-(1-methylethoxy)pyrimidin-5-yl]-L-phenylalaninamide] | 7.2
10 | COc1ccc([C@H](c2ccc(Cl)cc2)[C@H](N)C(=O)Nc2cccc(F)c2CCC2CNC3CCCS(=O)(=O)N2C3)cn1 (stereo partly drawn) [Example 45, (βS)-4-chloro-N-{2-[2-(2,2-dioxido-2-thia-1,7-diazabicyclo[4.3.1]dec-9-yl)ethyl]-3-fluorophenyl}-β-(6-methoxypyridin-3-yl)-L-phenylalaninamide] | 3.8
11 | CO[C@H]1CC[C@H]([C@H](c2ccc(Cl)cc2)[C@H](N)C(=O)Nc2cccc(F)c2CC[C@H]2CN[C@@H]3CCCS(=O)(=O)N2C3)CC1 [Example 7, (βR)-4-Chloro-N-(2-{2-[(6R,9S)-2,2-dioxido-2-thia-1,7-diazabicyclo[4.3.1]dec-9-yl]ethyl}-3-fluorophenyl)-β-[(1r,4R)-4-methoxycyclohexyl]-L-phenylalaninamide] | 3.1
12 | CO[C@H]1CC[C@](c2ccc(F)cc2)([C@H](N)C(=O)Nc2cncc(F)c2CC[C@H]2CN[C@@H]3CCCS(=O)(=O)N2C3)CC1 [Example 235, (2S)-2-amino-N-(4-{2-[(6R,9S)-2,2-dioxido-2-thia-1,7-diazabicyclo[4.3.1]dec-9-yl]ethyl}-5-fluoropyridin-3-yl)-2-[trans-1-(4-fluorophenyl)-4-methoxycyclohexyl]ethanamide] | 67
13 | COC(=O)N[C@H](C(=O)N[C@H]1CCC[C@@H]1CC[C@H]1CN[C@@H]2CCCS(=O)(=O)N1C2)[C@@H](c1ccc(Cl)cc1)C1CCOCC1 [Example 58, methyl [(1S,2R)-2-(4-chlorophenyl)-1-{[(1S,2R)-2-{2-[(6R,9S)-2,2-dioxido-2-thia-1,7-diazabicyclo[4.3.1]dec-9-yl]ethyl}cyclopentyl]carbamoyl}-2-(tetrahydro-2H-pyran-4-yl)ethyl]carbamate] | 59
14 | C[C@@H]1CC([C@H](c2ccc(Cl)cc2)[C@H](N)C(=O)N[C@H]2CCCC[C@@H]2CC[C@H]2CN[C@@H]3CCCS(=O)(=O)N2C3)C[C@H](C)O1 (stereo partly drawn) [Example 162, (βR)-4-chloro-β-[(2R,6S)-2,6-dimethyltetrahydro-2H-pyran-4-yl]-N-[(1S,2R)-2-{2-[(6R,9S)-2,2-dioxido-2-thia-1,7-diazabicyclo[4.3.1]dec-9-yl]ethyl}cyclohexyl]-L-phenylalaninamide] | 37
15 | NC(C(=O)Nc1cccc(F)c1CC[C@H]1CN[C@@H]2CCCS(=O)(=O)N1C2)[C@@H](c1ccc(Cl)cc1)[C@H]1CC[C@H](O)CC1 (stereo partly drawn) [Example 217, (βR)-4-chloro-N-(2-{2-[(6R,9S)-2,2-dioxido-2-thia-1,7-diazabicyclo[4.3.1]dec-9-yl]ethyl}-3-fluorophenyl)-β-[(1r,4R)-4-hydroxycyclohexyl]-L-phenylalaninamide] | 13
16 | COC(=O)N[C@H](C(=O)Nc1cccc(F)c1CCC1CNC2CCCS(=O)(=O)N1C2)[C@H](c1cncc(F)c1)c1ccc(Cl)c(F)c1 (stereo partly drawn) [Example 46, methyl [(1S,2S)-2-(4-chloro-3-fluorophenyl)-1-({2-[2-(2,2-dioxido-2-thia-1,7-diazabicyclo[4.3.1]dec-9-yl)ethyl]-3-fluorophenyl}carbamoyl)-2-(5-fluoropyridin-3-yl)ethyl]carbamate] | 9.1
17 | COC(=O)N[C@H](C(=O)N[C@H]1CCCC[C@@H]1CC[C@H]1CN[C@@H]2CCCS(=O)(=O)N1C2)[C@@H](c1ccc(Cl)cc1)C1CCOCC1 [Example 25, Methyl [(1S,2R)-2-(4-chlorophenyl)-1-{[(1S,2R)-2-{2-[(6R,9S)-2,2-dioxido-2-thia-1,7-diazabicyclo[4.3.1]dec-9-yl]ethyl}cyclohexyl]carbamoyl}-2-(tetrahydro-2H-pyran-4-yl)ethyl]carbamate] | 41
18 | COC(=O)N[C@H](C(=O)Nc1cccc(F)c1CC[C@H]1CNC2CCCS(=O)(=O)N1C2)C1(c2ccc(Cl)cc2)CCOCC1 (stereo partly drawn) [Example 42, methyl {(1S)-1-[4-(4-chlorophenyl)tetrahydro-2H-pyran-4-yl]-2-[(2-{2-[(9S)-2,2-dioxido-2-thia-1,7-diazabicyclo[4.3.1]dec-9-yl]ethyl}-3-fluorophenyl)amino]-2-oxoethyl}carbamate] | 31
19 | N[C@H](C(=O)Nc1cncc(F)c1CC[C@H]1CN[C@@H]2CCCS(=O)(=O)N1C2)[C@@H](c1ccc(Cl)cc1)C1CCC(F)(F)CC1 [Example 241, (2S,3R)-2-amino-3-(4-chlorophenyl)-3-(4,4-difluorocyclohexyl)-N-(4-(2-((6R,9S)-2,2-dioxido-2-thia-1,7-diazabicyclo[4.3.1]decan-9-yl)ethyl)-5-fluoropyridin-3-yl)propanamide] | 7.3
20 | CCO[C@H]1CC[C@H](C(c2ccc(Cl)c(F)c2)[C@H](N)C(=O)Nc2cccc(F)c2CC[C@H]2CN[C@@H]3CCCS(=O)(=O)N2C3)CC1 (stereo partly drawn) [Example 248, (βR).4-chloro-N-(2-{2-[(6R,9S)-2,2-dioxido-2-thia-1,7-diazabicyclo[4.3.1]dec-9-yl]ethyl}-3-fluorophenyl)-β-[(1r,4R)-4-ethoxycyclohexyl]-3-fluoro-L-phenylalaninamide] | 5.5
21 | N[C@H](C(=O)Nc1cccc(F)c1CC[C@H]1CN[C@@H]2CCCS(=O)(=O)N1C2)[C@H](c1cnc(C(F)(F)F)nc1)c1ccc(Cl)c(F)c1 [Example 249, (βS)-4-chloro-N-(2-{2-[(6R,9S)-2,2-dioxido-2-thia-1,7-diazabicyclo[4.3.1]dec-9-yl]ethyl}-3-fluorophenyl)-3-fluoro-β-[2-(trifluoromethyl)pyrimidin-5-yl]-L-phenylalaninamide] | 5.1

Reference: US10138255B2, “Piperazine derivatives as HIV protease inhibitors” (Merck Sharp & Dohme Corp., priority 2014, dated 2018)
